Reference: patent US7227020B2, “Azaindoles” (Aventis Pharma Limited, priority 1999, dated 2007)

**Q.** For `c1cncc(OCCCn2cc(-c3cc4nccnc4[nH]3)c3ccccc32)c1` [Example 6, 6-{1-[3-(Pyridin-3-yloxy)-propyl]-1H-indol-3-yl}-5H-pyrrolo[2,3-b]pyrazine], which melting point is on record?
**A.** 208 to 209 °C

**Q.** Which melting point does the source give for `COc1ccc2[nH]cc(-c3cc4nccnc4[nH]3)c2c1` [Example 11, 6-(5-Methoxy-1H-indol-3-yl)-5H-pyrrolo[2,3-b]pyrazine] here?
**A.** 268 to 271 °C

**Q.** With `COc1ccc2c(c1)c(-c1cc3nccnc3[nH]1)cn2CC(=O)N1CCOCC1` [Example 12, 2-[5-Methoxy-3-(5H-pyrrolo[2,3-b]pyrazin-6-yl)-indol-1-yl]-1-morpholin-4-yl-ethanone] as the compound, how does the melting point read?
**A.** 263 to 267 °C

**Q.** For `Cn1cc(-c2cc3cccnc3[nH]2)c2cc(N)ccc21` [Example 18, 1-Methyl-3-(1H-pyrrolo[2,3-b]pyridin-2-yl)-1H-indol-5-ylamine], which melting point is on record?
**A.** 247 to 248 °C

**Q.** With `CC(C)(C)c1ccc(-c2[nH]c3nccnc3c2CCCO)cc1` [Example 26, 3-[6-(4-tert-Butyl-phenyl)-5H-pyrrolo[2,3-b]pyrazin-7-yl]-propan-1-ol] as the compound, how does the melting point read?
**A.** 187 to 189 °C

**Q.** Which melting point does the source give for `CCOC(=O)COc1cc(-c2cc3nccnc3[nH]2)ccc1OC` [Example 27, [2-Methoxy-5-(5H-pyrrolo[2,3-b]pyrazin-6-yl)-phenoxy]acetic acid ethyl ester] here?
**A.** 183 to 184 °C
